The source of these data is US10918645B2 (LIFEARC, priority 2016, dated 2021).

Type in all cases: biochemical
Common to all, as to conditions: 1 μM inhibitor concentration

The target in one assay is JNK2 (Homo sapiens (Human), UniProt P45984). Put plainly: JNK2 kinase selectivity assay. The procedure:
JNK2 1(5-20 mU diluted in 50 mM Tris (pH 7.5), 0.1 mM EGTA, 1 mg/ml BSA, 0.1% b-mercaptoethanol) is assayed against ATF2 (activating transcription factor in a final volume of 25.5 μl in 50 mM Tris pH 7.5, 0.1 mM EGTA, 0.1% b-Mercaptoethanol, ATF2 (3 μM), 10 mM magnesium acetate and 0.02 mM [33P-g-ATP] (500-1000 cpm/pmole) and incubated for 30 min at room temperature. Assays are stopped by addition of 5 μl of 0.5 M (3%) orthophosphoric acid and then harvested onto P81 Unifilter plates with a wash buffer of 50 mM orthophosphoric acid.

The target in another assay is SGK1 (Homo sapiens (Human), UniProt O00141). Put plainly: SGK1 kinase selectivity assay. The procedure: SGK (5-20 mU diluted in 20 mM MOPS pH 7.5, 1 mM EDTA, 0.01% Brij35, 5% glycerol, 0.1% b-mercaptoethanol, 1 mg/ml BSA) is assayed against a modified Crosstide peptide […] in a final volume of 25.5 μl containing 8 mM MOPS pH 7.0, 0.2 mM EDTA, 30 μM substrate peptide, 10 mM magnesium acetate and 0.02 mM [33P-g-ATP] (50-1000 cpm/pmole) and incubated for 30 min at room temperature. Assays are stopped by addition of 5 μl of 0.5 M (3%) orthophosphoric acid and then harvested onto P81 Unifilter plates with a wash buffer of 50 mM orthophosphoric acid.

The target in the next assay is MSK1 (Homo sapiens (Human), UniProt O75582). Put plainly: MSK1 kinase selectivity assay. The procedure: MSK1 (5-20 mU diluted in 20 mM MOPS pH 7.5, 1 mM EDTA, 0.01% Brij35, 0.1% b-mercaptoethanol, 1 mg/ml BSA) is assayed against a modified Crosstide peptide […] in a final volume of 25.5 μl containing 8 mM MOPS pH7.0, 0.2 mM EDTA, 30 μM substrate peptide, 10 mM magnesium acetate and 0.02 mM [33P-g-ATP](50-1000 cpm/pmole) and incubated for 30 min at room temperature Assays are stopped by addition of 5 μl of 0.5 M (3%) orthophosphoric acid and then harvested onto P81 Unifilter plates with a wash buffer of 50 mM orthophosphoric acid.

A further assay deals with CDK2-CyclinA (Homo sapiens (Human), UniProt P24941). As to the kind of experiment: CDK2-CyclinA kinase selectivity assay. The procedure:
CDK2/cyclin A (5-20 mU diluted in 50 mM Hepes pH 7.5, 1 mM DTT, 0.02% Brij35, 100 mM NaCl) is assayed against Histone H1 in a final volume of 25.5 μl containing 50 mM Hepes pH7.5, 1 mM DTT, 0.02% Brij35, 100 mM NaCl, Histone H1 (1 mg/ml), 10 mM magnesium acetate and 0.02 mM [33P-g-ATP](500-1000 cpm/pmole) and incubated for 30 min at room temperature. Assays are stopped by addition of 5 μl of 0.5 M (3%) orthophosphoric acid and then harvested onto P81 Unifilter plates with a wash buffer of 50 mM orthophosphoric acid.

The target in another assay is AuroraA (Homo sapiens (Human), UniProt O14965). Put plainly: AuroraA kinase selectivity assay. The procedure: Aurora A (5-20 mU diluted in 50 mM Tris pH 7.5, 0.1 mM EGTA, 0.1% β-mercaptoethanol, 1 mg/ml BSA) is assayed against […] in a final volume of […] containing 50 mM Tris pH 7.5, 0.1 mM EGTA, 0.3 mM […] 10 mM magnesium acetate and 0.005 mM [33P-γ-ATP](50-1000 cpm/pmole) and incubated for 30 min at room temperature. Assays are stopped by addition of 5 μl of 0.5 M (3%) orthophosphoric acid and then harvested onto P81 Unifilter plates with a wash buffer of 50 mM orthophosphoric acid.

The target in a further assay is LKB1 (Homo sapiens (Human), UniProt Q15831). Put plainly: LKB1 kinase selectivity assay. The method, then: LKB1 (5-20 mU diluted in 50 mM Tris pH 7.5, 0.1 mM EGTA, 0.1% β-mercaptoethanol, 1 mg/ml BSA) is assayed against […] in a final volume of 25.5 μl containing 50 mM Tris pH 7.5, 0.1 mM EGTA, 0.2 mM […], 10 mM magnesium acetate and 0.02 mM [33P-γ-ATP] (50-1000 cpm/pmole) and incubated for 30 min at room temperature. Assays are stopped by addition of 5 μl of 0.5 M (3%) orthophosphoric acid and then harvested onto P81 Unifilter plates with a wash buffer of 50 mM orthophosphoric acid.

The target in another assay is MELK (Homo sapiens (Human), UniProt Q14680). As to the kind of experiment: MELK kinase selectivity assay. The procedure: MELK (5-20 mU diluted in 50 mM Tris pH 7.5, 0.1 mM EGTA, 0.1% b-mercaptoethanol, 1 mg/ml BSA) is assayed against a substrate peptide ([…]) in a final volume of 25.5 μl containing 50 mM Tris pH 7.5, 0.05% b-mercaptoethanol, 200 μM substrate peptide, 10 mM magnesium acetate and 0.05 mM [33P-g-ATP] (50-1000 cpm/pmole) and incubated for 30 min at room temperature. Assays are stopped by addition of 5 μl of 0.5 M (3%) orthophosphoric acid and then harvested onto P81 Unifilter plates with a wash buffer of 50 mM orthophosphoric acid.

Another assay addresses MLK3 (Homo sapiens (Human), UniProt Q16584). As to the kind of experiment: MLK3 kinase selectivity assay. The method, then:
MLK3 (5-20 mU diluted in 50 mM Tris pH 7.5, 0.1 mM EGTA, 0.1% 0-mercaptoethanol, 1 mg/ml BSA) is assayed against MBP in a final volume of 25.5 μl containing 50 mM Tris pH 7.5, 0.1 mM EGTA, 0.33 mg/ml MBP, 10 mM magnesium acetate and 0.02 mM [33P-γ-ATP] (50-1000 cpm/pmole) and incubated for 30 min at room temperature. Assays are stopped by addition of 5 μl of 0.5 M (3%) orthophosphoric acid and then harvested onto P81 Unifilter plates with a wash buffer of 50 mM orthophosphoric acid.

The target in a further assay is IR (Homo sapiens (Human), UniProt P06213). Put plainly: IR kinase selectivity assay. The procedure:
IR-HIS (5-20 mU diluted in 50 mM Tris pH 7.5, 0.1 mM EGTA, 1 mg/ml BSA) is assayed against a substrate peptide ([…]) in a final volume of 25.5 μl containing 50 mM Tris pH 7.5, 300 µM substrate peptide, 10 mM magnesium acetate and 0.02 mM [33P-g-ATP] (50-1000 cpm/pmole) and incubated for 30 min at room temperature. Assays are stopped by addition of 5 μl of 0.5 M (3%) orthophosphoric acid and then harvested onto P81 Unifilter plates with a wash buffer of 50 mM orthophosphoric acid.

Sequence of LKB1 (Q15831 whole entry, species assumed): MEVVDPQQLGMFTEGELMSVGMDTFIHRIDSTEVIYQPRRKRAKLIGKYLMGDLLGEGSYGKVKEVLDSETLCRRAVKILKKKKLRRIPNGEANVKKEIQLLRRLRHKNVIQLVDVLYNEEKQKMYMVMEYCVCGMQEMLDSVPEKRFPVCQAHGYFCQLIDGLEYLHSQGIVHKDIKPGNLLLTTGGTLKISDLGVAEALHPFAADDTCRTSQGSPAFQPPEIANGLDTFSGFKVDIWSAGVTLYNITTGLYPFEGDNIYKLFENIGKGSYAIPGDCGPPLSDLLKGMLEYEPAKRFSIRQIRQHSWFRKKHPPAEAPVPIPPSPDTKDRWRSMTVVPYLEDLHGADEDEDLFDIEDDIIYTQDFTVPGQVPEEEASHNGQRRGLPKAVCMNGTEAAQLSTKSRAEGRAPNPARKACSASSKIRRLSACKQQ
Sequence of LKB1 (Q7RTN6 whole entry partner, species assumed): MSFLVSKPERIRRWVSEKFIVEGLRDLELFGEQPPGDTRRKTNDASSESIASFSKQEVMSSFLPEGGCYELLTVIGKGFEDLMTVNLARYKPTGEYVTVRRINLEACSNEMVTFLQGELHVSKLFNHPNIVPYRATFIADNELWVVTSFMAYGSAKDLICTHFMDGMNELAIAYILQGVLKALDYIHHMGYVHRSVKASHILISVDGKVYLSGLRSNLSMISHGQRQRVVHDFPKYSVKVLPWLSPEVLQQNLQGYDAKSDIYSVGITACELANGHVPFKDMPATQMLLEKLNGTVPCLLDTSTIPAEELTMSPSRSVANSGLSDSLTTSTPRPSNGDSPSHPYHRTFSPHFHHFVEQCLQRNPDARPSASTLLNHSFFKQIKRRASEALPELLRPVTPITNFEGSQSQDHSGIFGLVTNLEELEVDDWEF
Sequence of LKB1 (Q9Y376 whole entry partner, species assumed): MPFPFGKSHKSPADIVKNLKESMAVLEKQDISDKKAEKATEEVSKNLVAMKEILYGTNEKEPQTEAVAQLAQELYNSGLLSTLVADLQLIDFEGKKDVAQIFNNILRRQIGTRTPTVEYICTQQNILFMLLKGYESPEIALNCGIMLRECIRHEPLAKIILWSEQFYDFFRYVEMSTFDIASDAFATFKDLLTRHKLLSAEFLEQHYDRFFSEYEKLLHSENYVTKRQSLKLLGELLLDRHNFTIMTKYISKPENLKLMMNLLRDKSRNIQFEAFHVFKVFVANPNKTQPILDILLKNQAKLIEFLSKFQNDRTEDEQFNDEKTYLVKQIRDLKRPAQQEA
Sequence of SGK1 (O00141 whole entry, species assumed): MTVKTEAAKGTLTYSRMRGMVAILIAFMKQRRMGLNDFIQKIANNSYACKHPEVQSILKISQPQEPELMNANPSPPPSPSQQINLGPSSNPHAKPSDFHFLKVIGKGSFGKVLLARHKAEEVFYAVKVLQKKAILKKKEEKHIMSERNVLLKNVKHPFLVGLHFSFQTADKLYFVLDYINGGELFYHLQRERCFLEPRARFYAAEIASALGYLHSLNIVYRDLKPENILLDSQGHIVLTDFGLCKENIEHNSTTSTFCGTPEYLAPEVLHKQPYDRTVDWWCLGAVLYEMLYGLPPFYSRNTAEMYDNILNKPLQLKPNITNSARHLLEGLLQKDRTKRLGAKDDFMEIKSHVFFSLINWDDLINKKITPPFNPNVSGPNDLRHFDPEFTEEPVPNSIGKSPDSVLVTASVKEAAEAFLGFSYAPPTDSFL
Sequence of MSK1 (O75582 whole entry, species assumed): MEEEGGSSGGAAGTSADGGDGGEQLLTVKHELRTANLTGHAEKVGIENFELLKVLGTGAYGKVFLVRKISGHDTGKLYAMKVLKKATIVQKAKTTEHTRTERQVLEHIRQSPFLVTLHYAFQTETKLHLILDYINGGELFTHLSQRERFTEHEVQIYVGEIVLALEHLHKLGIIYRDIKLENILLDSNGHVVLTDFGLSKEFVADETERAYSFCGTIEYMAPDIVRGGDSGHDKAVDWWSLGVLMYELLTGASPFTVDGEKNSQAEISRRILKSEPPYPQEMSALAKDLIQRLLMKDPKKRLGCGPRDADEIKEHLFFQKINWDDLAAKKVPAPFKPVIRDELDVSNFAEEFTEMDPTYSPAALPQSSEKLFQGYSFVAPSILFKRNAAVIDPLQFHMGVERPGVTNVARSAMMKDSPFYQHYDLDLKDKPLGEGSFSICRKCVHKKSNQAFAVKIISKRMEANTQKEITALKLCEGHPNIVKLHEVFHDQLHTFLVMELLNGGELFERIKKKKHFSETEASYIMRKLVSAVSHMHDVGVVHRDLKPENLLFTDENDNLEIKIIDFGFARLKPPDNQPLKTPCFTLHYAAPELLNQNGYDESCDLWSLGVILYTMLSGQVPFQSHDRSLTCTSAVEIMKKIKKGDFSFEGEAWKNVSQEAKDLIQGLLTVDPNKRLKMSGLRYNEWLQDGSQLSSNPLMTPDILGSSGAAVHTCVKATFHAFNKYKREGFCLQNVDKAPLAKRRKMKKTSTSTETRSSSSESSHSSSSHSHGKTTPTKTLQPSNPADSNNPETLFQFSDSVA
Sequence of AuroraA (O14965 whole entry): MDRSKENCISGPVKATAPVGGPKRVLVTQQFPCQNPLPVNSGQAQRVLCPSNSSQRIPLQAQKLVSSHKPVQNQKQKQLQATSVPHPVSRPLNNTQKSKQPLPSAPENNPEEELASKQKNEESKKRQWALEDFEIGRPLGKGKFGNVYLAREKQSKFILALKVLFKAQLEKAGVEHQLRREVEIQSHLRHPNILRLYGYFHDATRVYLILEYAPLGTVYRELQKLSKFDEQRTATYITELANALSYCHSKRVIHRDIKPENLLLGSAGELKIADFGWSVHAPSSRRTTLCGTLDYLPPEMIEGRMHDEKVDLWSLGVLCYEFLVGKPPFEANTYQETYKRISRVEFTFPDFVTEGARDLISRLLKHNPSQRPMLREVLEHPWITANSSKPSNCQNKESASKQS
Sequence of MLK3 (Q16584 whole entry, species assumed): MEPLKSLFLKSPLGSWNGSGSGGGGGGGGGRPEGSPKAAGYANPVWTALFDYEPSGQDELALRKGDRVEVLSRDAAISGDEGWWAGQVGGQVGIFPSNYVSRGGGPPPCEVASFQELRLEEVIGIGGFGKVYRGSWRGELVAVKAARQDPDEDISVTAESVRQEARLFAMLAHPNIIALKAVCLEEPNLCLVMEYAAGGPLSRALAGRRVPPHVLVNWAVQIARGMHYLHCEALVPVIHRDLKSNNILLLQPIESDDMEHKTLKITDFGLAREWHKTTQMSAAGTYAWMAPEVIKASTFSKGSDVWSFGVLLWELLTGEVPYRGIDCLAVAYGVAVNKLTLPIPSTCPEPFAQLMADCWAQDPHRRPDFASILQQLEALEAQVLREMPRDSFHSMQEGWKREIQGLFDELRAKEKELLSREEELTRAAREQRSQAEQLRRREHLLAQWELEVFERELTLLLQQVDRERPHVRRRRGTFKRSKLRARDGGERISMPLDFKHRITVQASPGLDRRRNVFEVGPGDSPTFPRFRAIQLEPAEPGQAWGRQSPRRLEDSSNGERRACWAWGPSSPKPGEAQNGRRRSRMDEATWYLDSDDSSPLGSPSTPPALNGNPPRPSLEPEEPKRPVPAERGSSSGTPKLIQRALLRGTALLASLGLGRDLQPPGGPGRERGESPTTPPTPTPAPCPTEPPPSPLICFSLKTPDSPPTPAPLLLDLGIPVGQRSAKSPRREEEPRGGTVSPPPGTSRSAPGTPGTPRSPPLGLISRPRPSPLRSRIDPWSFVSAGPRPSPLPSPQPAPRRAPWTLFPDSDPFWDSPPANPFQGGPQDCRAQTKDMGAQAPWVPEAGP
Sequence of MELK (Q14680 whole entry, species assumed): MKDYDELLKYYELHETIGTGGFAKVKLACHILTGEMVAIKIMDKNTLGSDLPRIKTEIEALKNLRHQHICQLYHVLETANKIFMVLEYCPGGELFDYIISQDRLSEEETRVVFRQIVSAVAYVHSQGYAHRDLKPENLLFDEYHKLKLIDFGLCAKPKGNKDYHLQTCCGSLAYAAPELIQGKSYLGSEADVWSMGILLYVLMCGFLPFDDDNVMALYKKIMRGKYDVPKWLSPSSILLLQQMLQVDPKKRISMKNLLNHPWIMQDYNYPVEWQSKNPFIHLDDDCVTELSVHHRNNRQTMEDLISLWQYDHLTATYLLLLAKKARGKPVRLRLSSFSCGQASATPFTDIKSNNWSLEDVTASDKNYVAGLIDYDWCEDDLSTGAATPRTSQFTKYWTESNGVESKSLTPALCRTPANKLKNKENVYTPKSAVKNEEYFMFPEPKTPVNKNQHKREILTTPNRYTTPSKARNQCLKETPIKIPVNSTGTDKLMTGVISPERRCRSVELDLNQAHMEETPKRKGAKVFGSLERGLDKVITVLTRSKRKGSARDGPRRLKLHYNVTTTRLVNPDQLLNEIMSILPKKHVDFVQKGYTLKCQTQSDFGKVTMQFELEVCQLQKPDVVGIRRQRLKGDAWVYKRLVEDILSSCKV
Sequence of JNK2 (P45984 whole entry, species assumed): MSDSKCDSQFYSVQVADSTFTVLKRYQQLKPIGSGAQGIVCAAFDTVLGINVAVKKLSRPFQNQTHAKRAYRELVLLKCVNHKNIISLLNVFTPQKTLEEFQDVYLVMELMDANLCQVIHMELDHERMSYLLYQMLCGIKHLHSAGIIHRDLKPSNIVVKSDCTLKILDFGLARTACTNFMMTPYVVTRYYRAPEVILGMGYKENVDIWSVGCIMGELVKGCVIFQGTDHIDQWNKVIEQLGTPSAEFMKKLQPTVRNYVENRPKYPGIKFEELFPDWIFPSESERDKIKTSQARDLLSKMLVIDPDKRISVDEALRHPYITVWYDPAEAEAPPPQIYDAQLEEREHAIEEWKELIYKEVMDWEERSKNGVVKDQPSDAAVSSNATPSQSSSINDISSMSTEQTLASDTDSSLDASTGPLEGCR

Consider `c1cc2[nH]nc3c2c(n1)N(C1CCC1)CCC3` [Example 22, 6-cyclobutyl-6,7,8,9-tetrahydro-2H-1,2,5,6-tetraazabenzo[cd]azulene], for which the “percentage inhibition of JNK2” value on JNK2 is 1 percentage. Besides, the “percentage inhibition of SGK1” value at SGK1 stood at 13 percentage. Besides, on MSK1, the “percentage inhibition of MSK1” value stood at 2 percentage. Moreover, the “percentage inhibition of CDK2-CyclinA” value on CDK2-CyclinA is 16 percentage. The “percentage inhibition of AuroraA” value at AuroraA was 0 percentage. On LKB1, the “percentage inhibition of LKB1” value is reported as 20 percentage. Moreover, at MELK, the “percentage inhibition of MELK” value amounted to 10 percentage. Also, the “percentage inhibition of MLK3” value on MLK3 is given as 7 percentage. For the same compound, the “percentage inhibition of IR” value on IR amounted to 27 percentage.
Consider `c1cc2[nH]nc3c2c(n1)N(C1CCCC1)CCC3` [Example 23, 6-cyclopentyl-6,7,8,9-tetrahydro-2H-1,2,5,6-tetraazabenzo[cd]azulene], for which, on JNK2, the “percentage inhibition of JNK2” value is recorded as 0 percentage. On SGK1, the “percentage inhibition of SGK1” value worked out at 0 percentage. For the same compound, the “percentage inhibition of MSK1” value on MSK1 came to 2 percentage. In addition, the “percentage inhibition of CDK2-CyclinA” value at CDK2-CyclinA came to 0 percentage. Besides, the “percentage inhibition of AuroraA” value on AuroraA is 0 percentage. Also, at LKB1, the “percentage inhibition of LKB1” value was determined as 16 percentage. In addition, the “percentage inhibition of MELK” value at MELK is reported as 1 percentage. Moreover, the “percentage inhibition of MLK3” value at MLK3 is 4 percentage. Further, the “percentage inhibition of IR” value on IR stood at 1 percentage.
Regarding `c1cc2[nH]nc3c2c(n1)N(C1CCOCC1)CCC3` [Example 29, 6-(tetrahydro-2H-pyran-4-yl)-6,7,8,9-tetrahydro-2H-1,2,5,6-tetraazabenzo[cd]azulene], the “percentage inhibition of JNK2” value on JNK2 turned out to be 0 percentage. The “percentage inhibition of SGK1” value at SGK1 came to 18 percentage. Moreover, at MSK1, the “percentage inhibition of MSK1” value amounted to 7 percentage. Besides, at CDK2-CyclinA, the “percentage inhibition of CDK2-CyclinA” value was 30 percentage. The “percentage inhibition of AuroraA” value on AuroraA came out at 0 percentage. Also, the “percentage inhibition of LKB1” value on LKB1 was 6 percentage. The “percentage inhibition of MELK” value at MELK is 24 percentage. In addition, the “percentage inhibition of MLK3” value on MLK3 was 8 percentage. For the same compound, the “percentage inhibition of IR” value at IR was 2 percentage.
Regarding `CN1CCC(N2Cc3ccccc3-c3n[nH]c4ccnc2c34)CC1` [Example 55], at JNK2, the “percentage inhibition of JNK2” value worked out at 41 percentage. On SGK1, the “percentage inhibition of SGK1” value was determined as 10 percentage. For the same compound, at MSK1, the “percentage inhibition of MSK1” value was 34 percentage. In addition, the “percentage inhibition of CDK2-CyclinA” value at CDK2-CyclinA stood at 10 percentage. Moreover, the “percentage inhibition of AuroraA” value at AuroraA is given as 9 percentage. The “percentage inhibition of LKB1” value on LKB1 came out at 0 percentage. Further, on MELK, the “percentage inhibition of MELK” value was determined as 78 percentage. Besides, the “percentage inhibition of MLK3” value at MLK3 is given as 6 percentage. Also, the “percentage inhibition of IR” value at IR came to 5 percentage.
As for `CC(C)n1ncc2c1CN(C1CCN(C)CC1)c1nccc3[nH]nc-2c13` [Example 68], on JNK2, the “percentage inhibition of JNK2” value was 37 percentage. The “percentage inhibition of SGK1” value on SGK1 is on record as 23 percentage. For the same compound, the “percentage inhibition of MSK1” value at MSK1 is 30 percentage. Also, on CDK2-CyclinA, the “percentage inhibition of CDK2-CyclinA” value amounted to 0 percentage. The “percentage inhibition of AuroraA” value on AuroraA came to 13 percentage. In addition, the “percentage inhibition of LKB1” value at LKB1 worked out at 0 percentage. Besides, the “percentage inhibition of MELK” value on MELK was 72 percentage. Moreover, the “percentage inhibition of MLK3” value on MLK3 stood at 4 percentage. Further, the “percentage inhibition of IR” value at IR stood at 0 percentage.
